In patent publication US20230391776A1, “AMIDE OXAZOLE COMPOUND” (MEDSHINE DISCOVERY INC., priority 2020, published 2023):
“And” between values parts separate entries of the source, which are not always exact repeats. Equal entries are not always repeated.

Assays:
[1] = test system: TNF-α secretion induced by LPS; assay: TNF-α secretion model induced by LPS in SD rats; type: in vivo; settings: 25 mpk oral gavage 0.5 h before 1 mg/kg LPS i.p., plasma 2 hours after modeling, p<0.01
Procedure: a) The pharmacokinetic effect of compound WX009 on TNF-α secretion model induced by LPS in SD rats.
Female SD rats were randomly divided into four groups according to the animal weight, namely Sham group, Model group and Dexamethasone (dosage: 0.5 mpk, DEX-0.5 mpk) group and tested drug WX009 (dosage: 25 mpk, WX009-25 mpk) group, with 6-9 animals in each group. The model was established by a single intraperitoneal injection of 1 mg/kg LPS. Dexamethasone and tested drug were given orally by gavage 0.5 h before modeling. After modeling for 2 hours, the animals were weighed, and all the experimental animals were anesthetized by intraperitoneal injection of pentobarbital sodium. An anticoagulant whole blood was collected through sublingual vein, anticoagulant: EDTA-K2, the plasma was separated, and the plasma volume was about 200 μL, which was used to detect the content of inflammatory factor, TNF-α.

[2] = test system: human diffuse large B lymphoma TMD8 cell subcutaneous xenograft; assay: TMD8 subcutaneous xenograft tumor model (WX009 study); type: in vivo, SCID mouse; settings: 18th day after administration
Text: The formula for calculating the tumor inhibition rate TGI (%)=[1−(average tumor volume at the end of administration in a treatment group-average tumor volume at the beginning of administration in the treatment group))/(average tumor volume at the end of treatment in solvent control group-average tumor volume at the beginning of treatment in solvent control group)]×100%.

human IRAK4 = target: T1, human IRAK4 (Homo sapiens, UniProt Q9NWZ3); assay: In vitro IRAK4 kinase activity, 33P isotope-labeled kinase assay; type: biochemical
T1 construct: purchased Reaction Biology Corp
T1 sequence (Q9NWZ3 1-460): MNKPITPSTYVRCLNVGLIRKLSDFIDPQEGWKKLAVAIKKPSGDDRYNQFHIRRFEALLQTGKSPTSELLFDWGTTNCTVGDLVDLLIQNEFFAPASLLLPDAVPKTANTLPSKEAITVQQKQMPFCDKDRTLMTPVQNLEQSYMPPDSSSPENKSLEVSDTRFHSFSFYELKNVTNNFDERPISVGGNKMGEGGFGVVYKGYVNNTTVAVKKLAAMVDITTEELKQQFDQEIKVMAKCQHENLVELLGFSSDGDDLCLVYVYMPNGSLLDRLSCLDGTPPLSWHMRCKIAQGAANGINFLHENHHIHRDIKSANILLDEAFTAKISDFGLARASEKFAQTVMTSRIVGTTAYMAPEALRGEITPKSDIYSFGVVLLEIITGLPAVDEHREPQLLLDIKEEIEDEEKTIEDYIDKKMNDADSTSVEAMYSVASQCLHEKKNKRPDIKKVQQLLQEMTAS
Procedure: The IC50 values were determined using ^33P isotope-labeled kinase activity assay (Reaction Biology Corp) to evaluate the inhibitory ability of the tested compounds on human IRAK4.
Buffer conditions: 20 mM Hepes (pH 7.5), 10 mM MgCl2, 1 mM EGTA, 0.02% Brij35, 0.02 mg/mL BSA, 0.1 mM Na3VO4, 2 mM DTT, 1% DMSO.
Test procedure: At room temperature, the tested compound was dissolved in DMSO and a 10 mM solution was prepared for use. The substrate was dissolved in a newly prepared buffer solution, and the tested IRAK4 kinase was added thereto and mixed evenly. The DMSO solution dissolved with the tested compound was added to the above mixed evenly reaction solution using acoustic technique (Echo 550). After incubation for 15 minutes, ^33P-ATP was added to initiate the reaction. The reaction was carried out at room temperature for 120 minutes, and the reaction mixture was dropped on P81 ion exchange filter paper (Whatman #3698-915). The filter paper was washed repeatedly with 0.75% phosphoric acid solution, and the radioactivity of phosphorylated substrate residues on the filter paper was determined. The kinase activity data were expressed by comparing the kinase activity of the group containing the tested compound with the kinase activity of the blank group (only containing DMSO), and the IC50 value was obtained by curve fitting by Prism4 software (GraphPad), the experimental results were shown in Table 2.

[3] = test system: human diffuse large B lymphoma TMD8 cell subcutaneous xenograft; assay: TMD8 subcutaneous xenograft tumor model (WX017 and WX027 study); settings: 11th day after administration
Procedure: a) TMD8 cells were cultured in RPMI-1640 medium containing 10% FBS and maintained in a 37° C. saturated humidity incubator with 5% CO2. TMD8 cells in logarithmic period were collected, resuspended in RPMI-1640 basal medium, and Matrigel was added at 1:1, and the cell concentration was adjusted to 4×10^7/mL. Under aseptic conditions, 0.1 mL of cell suspension was inoculated under the skin of the right back of SCID mice, and the inoculation concentration was 4×10^6/0.1 mL/mouse.
When the tumor grew to a certain size, the animals with too large, too small or irregular tumor shape were excluded, and the animals with tumor volume of 108.76-188.11 mm^3 were selected. According to the tumor volume, the animals were divided into 10 groups by random block method, with 6 mice in each group, and the average tumor volume was about 152.11 mm^3. The health status and death of animals were monitored every day, and routine examinations included observing the effects of tumor growth and drug treatment on daily behaviors of animals, such as behavioral activities, food intake and water intake, weight change (weight was measured twice a week), tumor size (tumor volume was measured twice a week), appearance signs or other abnormal conditions.
The formula for calculating tumor volume (TV) was: 1/2×a×b^2, where a and b were the measured length and width of the tumor respectively. The formula for calculating the tumor inhibition rate TGI (%)=[1−(average tumor volume at the end of administration in a treatment group-average tumor volume at the beginning of administration in the treatment group))/(average tumor volume at the end of treatment in solvent control group-average tumor volume at the beginning of treatment in solvent control group)]×100%.
In this study, the experimental data were all expressed by Mean±SEM. Statistical analysis was based on the data of RTV at the end of the experiment and analyzed by IBM SPSS Statistics software. T test was used to analyze the comparison between two groups, and one-way ANOVA was used to analyze the comparison between three or more groups. If the variance was even (there was no significant difference in F value), Tukey's method was used to analyze it, and if the variance was uneven (there was significant difference in F value), Games-Howell method was used to test it. p<0.05 was deemed to a significant difference.

Compound: Cc1cc(-c2nc(C(=O)Nc3cn4cc(C(C)(C)O)nc4cc3-c3ccccc3)co2)ccn1 [WX009]
- TNF-α content in animal plasma compared with the Model group [1]: significantly reduce
- TGI ([2]; 5 mg/kg BID PO): 86% and 86.28%
- TGI ([2]; 10 mg/kg BID PO): 85.10%
- TGI ([2]; 20 mg/kg BID PO): 96.55%
- IC50 (human IRAK4): 0.9 nM

Compound: CC(C)(O)c1cn2cc(NC(=O)c3coc(-c4ccnc(N)c4)n3)c(-c3ccccc3)cc2n1 [WX017]
- TGI ([3]; 3 mg/kg BID PO): 86%
- TGI ([3]; 10 mg/kg BID PO): 100%
- TGI ([3]; 20 mg/kg BID PO): 114%
- IC50 (human IRAK4): 0.1 nM

Compound: CC(C)(O)c1cn2cc(NC(=O)c3coc(-c4ccnc(N)c4F)n3)c(-c3ccccc3)cc2n1 [WX027]
- TGI ([3]; 3 mg/kg BID PO): 78%
- TGI ([3]; 10 mg/kg BID PO): 90%
- TGI ([3]; 20 mg/kg BID PO): 104%
- IC50 (human IRAK4): 0.1 nM
